# What was measured:
# βTC3 cells = test: DNA fragmentation analysis (FACScan) of βTC3 treated with TNF-α; assay type: cell-based, murine; details: exogenous CO 1% for 24 hours
# Description: βTC3 cultures were incubated with recombinant TNF-α (500 or 1000 U/ml) (R&D Systems) for 24 hours and islet cultures were stimulated with TNF-É (5000 U/ml) (R&D Systems) and cyclohexamide (CHX) (50 μg/ml) for 48 hours. βTC3 or islets were harvested, dispersed, fixed in 70% ethanol, and suspended in DNA staining buffer (PBS, pH 7.4, containing 0.1% Triton X-100, 0.1 mM EDTA, 50 μg/ml propidium iodide, […] Rnase A). DNA content was analyzed on a FACScan™ analyzer equipped with Cell QuestO Software (Becton Dickinson, Palo Alto, Calif.). Cells with a normal DNA content (2N) were scored as viable, whereas cells with a hypoploid DNA content (<2N, termed A^0) were scored as apoptotic. To exclude debris and apoptotic cell-free fragments, all events with an FL-2 area profile below that of chicken erythrocyte nuclei were excluded from analysis.
# Cells and islets were exposed to 1% carbon monoxide in compressed air balanced with 5% CO2, as described elsewhere (see, e.g., Otterbein et al., Nature Med. 6:422–428, 2000). […]
# Whether exogenous carbon monoxide could protect β-cells from apoptosis was investigated (FIGS. 2A–C). […] After 24 hours cells were stained by propidium iodide and analyzed for DNA fragmentation on a FACScan™. […]
# [1] = test system: Brown Norway aortas transplanted into Lewis rats; test: Aortic transplant model (transplant-associated arteriosclerosis); assay type: in vivo, rat; details: allogeneic recipients exposed to CO 250 ppm for 56 days
# Description: Aortic transplantation was carried out done as described elsewhere (Plissonnier et al., Transplantation 60:414–424, 1995). […] After additional left thoracotomy, three or four pairs of the inter-costal arteries were ligated using 7-0 nylon suture (Keisei Medical Industrial Co., LTD, Tokyo, Japan), and 2 cm of the descending aorta was harvested. The graft was inserted between the renal arteries and the aortic bifurcation by standard microsurgery technique using 9-0 Nylon sutures (Ethilon™, Ethicon, Inc, Somerville, N.J.). The native abdominal aorta was left after both edges were ligated.
# CO at a concentration of 1% (10,000 parts per million; ppm) in compressed air was mixed with balanced air (21% oxygen) as described previously (Otterbein et al., Am J Physiol 276(4 Pt 1):L688–L694, 1999). For the transplant model, graft donors were placed in the CO chamber two days before transplantation. Recipients were placed in the chamber immediately following transplantation and kept there 56 days. CO concentration was maintained at 250 ppm at all times.
# Adult male (250–350 g) Brown Norway rats (RT1 were used as aortic graft donors and adult male (250–350 g) Lewis rats (RT1) as recipients (Charles River Lab. Wilmington, Mass.). Male C57BL/6, p21^−/− and p53^−/− null mice were purchased from Jackson Laboratory (Bar Harbor, Me.). The MKK3^(−/−) null mice were generated as previously described (Lu et al., EMBO. J. 18:1845–1857, 1999). Mice were allowed to acclimate for one week with rodent chow and water ad libitum.
# Brown Norway aortas were transplanted into Brown Norway rats (syngeneic), untreated Lewis rats (allogeneic), or Lewis rats exposed to carbon monoxide (250 ppm; allogeneic with carbon monoxide). Samples were harvested 56 days after transplantation and stained by a modified elastic tissue-masson trichrome, or by eosin hematoxylin. Brown Norway aortic segments transplanted into Lewis rats developed arteriosclerotic lesions that are consistent with those associated with chronic graft rejection (data not shown). […]
# [2] = test system: rat platelets overlaid on mouse 2F–2B endothelial cells; test: Platelet aggregation assay, platelets overlaid on pretreated endothelial cells; assay type: cell-based; details: endothelial cells pretreated with protoporphyrin 50 μM; ADP 2 μM
# Description: Mouse 2F–2B endothelial cells were cultured on 0.2% gelatin (Sigma) coated six-well plates in 88% DMEM (Life Technologies), 10% FCS (FCS), 100 U/ml penicillin, and 100 îg/ml streptomycin (Life Technologies). Confluent endothelial cells either were left untreated or were treated with the HO-inducing agent CoPPIX (50 îM; 18 h), the HO inhibitor SnPPIX (50 îM, 18 h), or both CoPPIX (50 îM, 15 h) and SnPPIX (50 îM, 3 h). Platelet-rich plasma was obtained by centrifugation (290-g, 12 min, 19° C.) of normal rat […] in 3.8% sodium citrate. Rat platelets (3–10^8 cells ml) were resuspended in HT buffer (8.9 mM NaHCO3, 0.8 mM KH2PO, 5.6 mM dextrose, 2.8 mM KCl solution, 0.8 mM MgCl2, 129 mM NaCl, 10 mM HEPES). Platelets were overlaid (5 min; 37° C.) on mouse endothelial cells, and platelet aggregation assays were conducted as described before (Kaczmarek et al, J. Biol. Chem. 271:33116, 1996) by using an aggregometer (Chrono-Log, Harestown, Pa.) and ADP (0.5–4 μM) as an agonist.
Structure (SMILES),apoptotic cells (DNA fragmentation analysis) (βTC3 cells) [%],accumulation of leukocytes into the adventitia [1],intimal hyperplasia in aortic grafts [1],loss of medial SMC [1],platelet aggregation on stimulation by ADP [2]
"[C-]#[O+] [CO, carbon monoxide]",11.7,inhibited,inhibited,no significant effect on loss of medial SMC,
"C=Cc1c2[n-]c(c1C)/C=c1\[n-]/c(c(C)c1C=C)=C\c1[n-]c(c(CCC(=O)O)c1C)C=c1[n-]/c(c(C)c1CCC(=O)O)=C\2.[Sn+4] [SnPPIX, tin protoporphyrin IX]",,,,,platelet aggregation was enhanced

# — patent US7238469B2, “Carbon monoxide improves outcomes in tissue and organ transplants and suppresses apoptosis” (priority 2001, dated 2007)
